Results on 1 molecule are retold here after patent US20220133702A1, “CYSTIC FIBROSIS TRANSMEMBRANE CONDUCTANCE REGULATOR MODULATORS FOR TREATING AUTOSOMAL DOMINANT POLYCYSTIC KIDNEY DISEASE” (The Johns Hopkins University, priority 2020, published 2022).

In one assay the test system is CFTR in PN cells. The assay can be described thus: CFTR expression and biotinylation. The note with it: 10 μM, 16 h, vs control PN cells. Format: cell-based, mouse. The method, then:
FIG. 19A, FIG. 19B, FIG. 19C, and FIG. 19D show CFTR expression in PN cells treated with VX-809 (10 μM) for 16 h.
The expression of CFTR was evaluated in PN cells treated with VX-809 and control PN cells. PN cells were treated with 10 μM VX-809 for 16 h or a control.

For another assay, the system named is GRP78, Ero1, and GADD153. Put plainly: Western blot of ER stress markers in kidney tissue lysates. Format: in vivo, mouse. As to conditions: 30 mg/kg BW, cyst-induced mice. As for the experimental part:
FIG. 11A. FIG. 11B, FIG. 11C, FIG. 11D, and FIG. 11E show expression of ER stress markers GRP78, Ero1, and GADD in Pkd1-1 mice treated with VX-809. (FIG. 11A & FIG. 11D) Representative Western blot images of GRP78, ErO1, and GADD in lysates of kidney tissue from no cyst induced (ND), cyst induced with doxycycline (D) or cyst induced pkd−/− mice treated with VX-809 (D+VX-809) 30 mg/kg BW. (FIG. 11B, FIG. 11C and FIG. 11E) Columns represent averages±standard errors of GRP78, Ero1, and GADD153 expression. Data were analyzed by non-parametric t-test. n=4 for each treated and control groups. Black lines between lanes represent representative experiments from the same gel but loaded in different lanes. **P<0.01, ***P<0.001;
Given that VX-809 alters an ensemble of Hsps, it was evaluated whether VX-809 alters proteins associated with ER stress. To address this question, the levels of three ER stress-associated proteins were measured, 78-kDa glucose-regulated protein (GRP78), ER oxidoreductin 1 (Ero1) and DNA damage-inducible protein 3 (GADD153), also known as C/EBP homologous protein (CHOP) (37). The results are depicted in FIG. 11 show no changes in GRP78 or Ero1 in response to VX-809.

A further assay concerns PC2. Put plainly: Confocal localization of PC2 with ER, Golgi and PM markers. Format: cell-based. The note with it: treated vs control cells, Pearson's correlation with markers. The text has this:
FIG. 17A and FIG. 17B show images of confocal microscopy localization studies of PC2 and localization markers in control and treated cells (FIG. 17A) and graphs showing Pearson's correlation coefficient for PC2 and localization markers in control and VX-809 treated cells (FIG. 17B).
The localization of PC2 and CFTR in control cells was compared to the localization of PC2 and CFTR localization in VX-809 treated cells.

In assay [1] the test system is HSP27, HSP70 and HSP90 in PN cells. Put plainly: Western blot of heat shock proteins in cells. As to conditions: 10 μM, 16 h. Format: cell-based, mouse. The method, then: FIG. 8A, FIG. 8B, FIG. 8C, FIG. 8D, FIG. 8E, FIG. 8F, FIG. 8G, and FIG. 8H show chaperone expression is altered in PH and PN cells by VX-809. […] Western blot showing expression of HSP27, HSP70 and HSP90 in VX-809 treated or control PN cells. […] (FIG. 8E). Western blot of HSP27, HSP70 and HSP90 in PH vs. PN cells. […] Whereas, Hsp70 is higher in PH vs. PN cells. Data were analyzed by non-parametric t test. Experiment was repeated 4-5 times. Cells were grown in 10-cm culture dishes at permissive conditions (33° C.) with y-interferon in culture media. Cells were then transferred to non-permissive conditions at 37° C., y-interferon free culture media and evaluated at full confluence. At day four, cells were treated with VX-809 (10 μM) for 16 h and harvested on fifth day for assay. *P<0.05., **P<0.01, ***P<0.001, ****P<0.0001;
To facilitate their growth in the kidney, cysts have developed an altered network of proteins that most likely serves to protect them from stress . Next, it was determined whether VX-809 would alter the levels of Hsps in pkd−/− mice and in PN cells. […] Hsp 27, 70 and 90 are all elevated in cystic kidneys compared to normal controls. […] There is no change in Hsp40. […] Both sets of data are consistent with an alteration in the heat shock response to cyst growth.

The next assay relates to NHE3 in PN cells. The assay can be described thus: NHE3 activity. Format: cell-based, mouse. As to conditions: treated PN cells vs PN cells. As for the experimental part:
FIG. 15A and FIG. 15B show NHE3 activity in PN and PH cells (FIG. 15A and FIG. 15B) and NHE3 activity in PN cells treated with VX-809.
FIG. 16A, FIG. 16B, and FIG. 16C show NHE activity in PN/PH cells or PN cells treated with VX-809;
The expression and activity of […] were evaluated. Specifically, NHE3 expression was evaluated in PN cells that were treated with VX-809. […] was also studied in PN, PH, and PN cells treated with VX-809. […] Next, NHE3 activity was evaluated in PN/PH cells or PN cells treated with VX-809. NHE3 activity was increased in PN cells treated with VX-809, as compared to PN cells (FIG. 16A). NHE3 activity was higher in control PH cells than in PN cells (FIG. 16B). […] NHE3 activity was increased in both VX-809 treated PN cells and control PH cells, as compared to control PN cells (FIG. 16C).

Another assay concerns PC2 in PN cells. The assay can be described thus: Western blot of endogenous PC2. Format: cell-based, mouse. The method, then:
FIG. 6A and FIG. 6B show PC2 expression is unchanged by VX-809. (FIG. 6A) Western blot showing expression of PC2 in treated or control cells. (FIG. 6B) Columns represent the means±SEM of the PC2 expression. The data were analyzed by non-parametric t-test. The experiment was repeated six (control) or seven times;
PC2 is a 968-amino acid protein with an approximate molecular weight of 100 kDa in its monomeric form To determine whether VX-809 affects PC2 protein expression, western blot experiments were conducted on PN cells to determine the resting levels of endogenous PC2. The results indicated (FIG. 6) that VX-809 has no effect on PC2 expression.

Turning to `Cc1ccc(NC(=O)C2(c3ccc4c(c3)OC(F)(F)O4)CC2)nc1-c1cccc(C(=O)O)c1` [VX-809, lumacaftor], in the assay on CFTR in PN cells, the CFTR expression result is on record as “enhanced” and the “biotinylation of CFTR” value was “significantly increased”. In the assay with GRP78, Ero1, and GADD153, the Ero1 level result is on record as “no changes”, the GADD153 level result is on record as “equally dramatic reduction” and the GRP78 level entry is on record as “no changes”. Further, the PC2 localization result in the assay with PC2 was “statistically significant move of PC2 from the ER to Golgi”. In assay [1], the Hsp27 expression result is listed as “reduced expression”, the Hsp70 expression result was “reduced expression” and the Hsp90 expression entry is recorded as “reduced expression”. Further, the NHE3 activity entry in the assay with NHE3 in PN cells is “significantly increased”. In the assay with PC2 in PN cells, the PC2 expression result is “no effect”.
